20 molecules from patent US20240043435A1, “TYK-2 INHIBITOR” (BEIGENE, LTD., priority 2020, published 2024) can be followed below.

The structures appear in SMILES notation.

One assay deals with pSTAT5/GM-CSF. Description: pSTAT5/GM-CSF cellular assay (JAK2 selectivity). Type of assay: cell-based.
The target in assay [1] is T1, TYK2-JH2 (aa 575-869, in-house) protein (Homo sapiens, UniProt P29597).
T1 construct: TYK2-JH2 (aa 575-869, in-house) protein; made in house
Description: TYK2-JH2 biochemical assay (HTRF probe displacement). Type of assay: binding. Particulars: Biochemical assay; read-out: TYK2-JH2 IC50. The gist of the method: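 Recombinant TYK2-JH2 (0.2 nM) was pre-incubated 0.5 h at room temperature with compounds (10 doses, 5-fold dilution; 500× DMSO stocks from 500 uM) in 20 mM HEPES pH 7.5, 10 mM MgCl2, 0.005% BSA, 2 mM DTT, 0.015% Brij-35. Probe displacement was read by HTRF (ex337, em620/665 nm); IC50 from four-parameter logistic fit.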

The subject of assay [2] is JAK2, TYK2/p-STAT4 (Tyr693) activated by IL-12 in NK-92 cell line. The assay is described as follows: IL-12-JAK2, TYK2/p-STAT4 (Tyr693) inhibition IC50 cellular assay. Particulars: for Selectivity fold (TYK2/JAK2): Cellular assay, pSTAT5/GM-CSF IC50 vs pSTAT4/IL-12 IC50; for IC50: NK92, Cellular assay, read-out: pSTAT4/IL-12 IC50. It is filed as cell-based. The gist of the method:
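NK-92 cells were starved overnight without IL-2 and preincubated 1 h at 37° C with compound (8 doses, 10000–0.61 nM, 4-fold, 0.2% DMSO). They were then stimulated with IL-12 (40 ng/ml final) for 30 min. Lysate p-STAT4 (Tyr693) was read by AlphaLISA SureFire; IC50 from four-parameter logistic fit.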

Where [3] appears, read: pSTAT5/GM-CSF IC50 over pSTAT4/IL-12 IC50.

T1 sequence (P29597 575-869): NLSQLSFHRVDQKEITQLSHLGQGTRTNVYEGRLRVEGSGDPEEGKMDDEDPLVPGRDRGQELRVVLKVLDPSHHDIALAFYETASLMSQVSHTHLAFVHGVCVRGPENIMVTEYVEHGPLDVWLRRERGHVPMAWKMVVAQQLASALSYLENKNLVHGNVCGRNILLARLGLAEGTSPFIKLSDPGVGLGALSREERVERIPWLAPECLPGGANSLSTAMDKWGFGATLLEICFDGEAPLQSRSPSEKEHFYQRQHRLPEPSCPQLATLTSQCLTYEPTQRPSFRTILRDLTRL

As to `COc1ccc(-c2cnc(NC(C)=O)cc2Nc2nc(S(C)(=O)=O)cc3c2OCO3)nn1` [Example A28, N-(5-(6-methoxypyridazin-3-yl)-4-((6-(methylsulfonyl)-[1,3]dioxolo[4,5-c]pyridin-4-yl)amino)pyridin-2-yl)acetamide], the IC50 with pSTAT5/GM-CSF was above 10000 nM; in assay [1], 0.033 nM; in assay [2], 1.52 nM. Moreover, the “Selectivity fold (TYK2/JAK2)” value in assay [2] was above 6578 fold.

Regarding `CC(=O)Nc1cc(Nc2cc(OC(C)C)cc(S(C)(=O)=O)c2)c(-c2ccn(C(C)C)n2)cn1` [Example M26, N-(4-((3-isopropoxy-5-(methylsulfonyl)phenyl)amino)-5-(1-isopropyl-1H-pyrazol-3-yl)pyridin-2-yl)acetamide], the IC50 was above 10000 nM with pSTAT5/GM-CSF, 0.046 nM in assay [1] and 4.33 nM in assay [2]. In addition, the “Selectivity fold (TYK2/JAK2)” value in the assay with pSTAT5/GM-CSF (setting [3]) is above 2309 fold.

Take `COCCOc1cc(Nc2cc(NC(C)=O)ncc2-c2ccc(N3CCOCC3=O)cn2)nc(S(C)(=O)=O)c1` [Example G4, N-(4′-((4-(2-methoxyethoxy)-6-(methylsulfonyl)pyridin-2-yl)amino)-5-(3-oxomorpholino)-[2,3′-bipyridin]-6′-yl)acetamide]: the IC50 with pSTAT5/GM-CSF was above 10000 nM; in assay [1], 0.048 nM; in assay [2], 16 nM. Further, the “Selectivity fold (TYK2/JAK2)” value in the assay with pSTAT5/GM-CSF (pSTAT5/GM-CSF vs pSTAT4/IL-12) is on record as above 625 fold.

Take `CCn1ccc(-c2cnc(NC(C)=O)cc2Nc2cc(OCCOC)cc(S(C)(=O)=O)n2)n1` [Example M20, N-(5-(1-ethyl-1H-pyrazol-3-yl)-4-((4-(2-methoxyethoxy)-6-(methylsulfonyl)pyridin-2-yl)amino)pyridin-2-yl)acetamide]: the IC50 in the assay with pSTAT5/GM-CSF was above 10000 nM; in assay [1] it was 0.062 nM; in assay [2] it was 1.01 nM. Moreover, in the assay on pSTAT5/GM-CSF (setting [3]), the “Selectivity fold (TYK2/JAK2)” value is recorded as above 9900 fold.

Take `CC(=O)Nc1cc(Nc2cc(C#N)cc(S(C)(=O)=O)c2)c(-c2ccn(C)n2)cn1` [Example J7, N-(4-((3-cyano-5-(methylsulfonyl)phenyl)amino)-5-(1-methyl-1H-pyrazol-3-yl)pyridin-2-yl)acetamide]: the IC50 in the assay with pSTAT5/GM-CSF is above 10000 nM; in assay [1] it was 0.19 nM; in assay [2] it was 66.2 nM. Besides, the “Selectivity fold (TYK2/JAK2)” value with pSTAT5/GM-CSF (setting [3]) is above 150 fold.

On to `COC1CN(c2cc(Nc3cc(NC(C)=O)ncc3-c3ccc4c(n3)OCC(C)(C)O4)nc(S(C)(=O)=O)c2)C1` [Example Q49, N-(5-(2,2-dimethyl-2,3-dihydro-[1,4]dioxino[2,3-b]pyridin-6-yl)-4-((4-(3-methoxyazetidin-1-yl)-6-(methylsulfonyl)pyridin-2-yl)amino)pyridin-2-yl)acetamide], for which the IC50 with pSTAT5/GM-CSF is 379 nM; in assay [1], 0.029 nM; in assay [2] it was 0.827 nM. For the same molecule, the “Selectivity fold (TYK2/JAK2)” value in the assay with pSTAT5/GM-CSF (setting [3]) worked out at 458 fold.

As to `CCS(=O)(=O)c1cc(OC(C)C)cc(Nc2cc(NC(C)=O)ncc2-c2ccn(C)n2)n1` [Example J53, N-(4-((6-(ethylsulfonyl)-4-isopropoxypyridin-2-yl)amino)-5-(1-methyl-1H-pyrazol-3-yl)pyridin-2-yl)acetamide], the IC50 was above 10000 nM in the assay on pSTAT5/GM-CSF, 0.033 nM in assay [1] and 3.47 nM in assay [2]. Further, the “Selectivity fold (TYK2/JAK2)” value in the assay with pSTAT5/GM-CSF (setting [3]) is listed as above 2881 fold.

On to `CC(=O)Nc1cc(Nc2cncc(S(C)(=O)=O)n2)c(-c2ccc(N3C[C@@H](C)O[C@@H](C)C3)cn2)cn1` [Example C22, N-(5-(cis-2,6-dimethylmorpholino)-4′-((6-(methylsulfonyl)pyrazin-2-yl)amino)-[2,3′-bipyridin]-6′-yl)acetamide], for which the values for the IC50 (in the assay with pSTAT5/GM-CSF; in assay [1]; in assay [2]) were above 10000 nM, 0.023 nM and 0.476 nM, respectively. In addition, the “Selectivity fold (TYK2/JAK2)” value in assay [2] is above 21008 fold.

Take `COC(C)c1cc(Nc2cc(NC(C)=O)ncc2-c2ccn(C)n2)nc(S(C)(=O)=O)c1` (centres unmarked) [Example J41, N-(4-((4-(1-methoxyethyl)-6-(methylsulfonyl)pyridin-2-yl)amino)-5-(1-methyl-1H-pyrazol-3-yl)pyridin-2-yl)acetamide]: the IC50 is above 10000 nM in the assay with pSTAT5/GM-CSF, 0.027 nM in assay [1] and 2.98 nM in assay [2]. The “Selectivity fold (TYK2/JAK2)” value in the assay with pSTAT5/GM-CSF (setting [3]) was above 3355 fold.

For `CC(=O)Nc1cc(Nc2cc(OCC#N)cc(S(C)(=O)=O)n2)c(-c2ccn(C)n2)cn1` [Example J20, N-(4-((4-(cyanomethoxy)-6-(methylsulfonyl)pyridin-2-yl)amino)-5-(1-methyl-1H-pyrazol-3-yl)pyridin-2-yl)acetamide], the IC50 was above 10000 nM in the assay with pSTAT5/GM-CSF, 0.026 nM in assay [1] and 3 nM in assay [2]. The “Selectivity fold (TYK2/JAK2)” value in the assay with pSTAT5/GM-CSF (setting [3]) was above 3333 fold.

With `CC(=O)Nc1cc(Nc2nc(S(C)(=O)=O)ccc2OC(F)F)c(-c2ccn(C)n2)cn1` [Example J63, N-(4-((3-(difluoromethoxy)-6-(methylsulfonyl)pyridin-2-yl)amino)-5-(1-methyl-1H-pyrazol-3-yl)pyridin-2-yl)acetamide], the IC50 in the assay with pSTAT5/GM-CSF was above 10000 nM; in assay [1], 0.018 nM; in assay [2], 0.462 nM. Further, the “Selectivity fold (TYK2/JAK2)” value in the assay with pSTAT5/GM-CSF (setting [3]) is recorded as above 21645 fold.

Turning to `CC(=O)Nc1cc(Nc2cc(-c3ccccc3)cc(S(C)(=O)=O)n2)c(-c2ccn(C)n2)cn1` [Example J38, N-(5-(1-methyl-1H-pyrazol-3-yl)-4-((6-(methylsulfonyl)-4-phenylpyridin-2-yl)amino)pyridin-2-yl)acetamide], the IC50 is above 10000 nM with pSTAT5/GM-CSF, 0.024 nM in assay [1] and 1.98 nM in assay [2]. The “Selectivity fold (TYK2/JAK2)” value in the assay on pSTAT5/GM-CSF (setting [3]) is above 5050 fold.

As to `CC(=O)Nc1cc(Nc2cc(OC(F)(F)F)cc(S(C)(=O)=O)c2)c(-c2ccc(C(C)(C)O)cn2)cn1` [Example H18, N-(5-(2-hydroxypropan-2-yl)-4′-((3-(methylsulfonyl)-5-(trifluoromethoxy)phenyl)amino)-[2,3′-bipyridin]-6′-yl)acetamide], the IC50 was above 10000 nM with pSTAT5/GM-CSF, 0.032 nM in assay [1] and 5.54 nM in assay [2]. Moreover, the “Selectivity fold (TYK2/JAK2)” value in assay [2] is above 1805 fold.

For `CC(=O)Nc1cc(Nc2cc(OC(C)C)cc(S(C)(=O)=O)n2)c(-c2ccc3c(n2)OCCO3)cn1` [Example Q1, N-(5-(2,3-dihydro-[1,4]dioxino[2,3-b]pyridin-6-yl)-4-((4-isopropoxy-6-(methylsulfonyl)pyridine-2-yl)amino)pyridin-2-yl)acetamide], the IC50 with pSTAT5/GM-CSF was above 10000 nM; in assay [1], 0.023 nM; in assay [2], 1.76 nM. Further, the “Selectivity fold (TYK2/JAK2)” value in the assay with pSTAT5/GM-CSF (setting [3]) was above 5681 fold.

For the molecule `CC(=O)Nc1cc(Nc2cc(C#N)cc(S(C)(=O)=O)c2)c(-c2ccc(C(C)(C)O)cn2)cn1` [Example H20, N-(4′-((3-cyano-5-(methylsulfonyl)phenyl)amino)-5-(2-hydroxypropan-2-yl)-[2,3′-bipyridin]-6′-yl)acetamide], the figures for the IC50 (in the assay with pSTAT5/GM-CSF; in assay [1]; in assay [2]) were above 10000 nM, 0.046 nM and 35.2 nM, respectively. For the same molecule, the “Selectivity fold (TYK2/JAK2)” value in assay [2] is reported as above 284 fold.

As for `CC(=O)Nc1cc(Nc2ccc(F)c(S(C)(=O)=O)n2)c(-c2ccn(C)n2)cn1` [Example J54, N-(4-((5-fluoro-6-(methylsulfonyl)pyridin-2-yl)amino)-5-(1-methyl-1H-pyrazol-3-yl)pyridin-2-yl)acetamide], the IC50 in the assay with pSTAT5/GM-CSF was above 10000 nM; in assay [1] it was 0.028 nM; in assay [2], 2.03 nM. Moreover, the “Selectivity fold (TYK2/JAK2)” value in the assay with pSTAT5/GM-CSF (setting [3]) is on record as above 4926 fold.

`COCCOc1ccc(-c2cnc(NC(C)=O)cc2Nc2cc(OCCOC)cc(S(C)(=O)=O)n2)nc1` [Example D8, N-(5-(2-methoxyethoxy)-4′-((4-(2-methoxyethoxy)-6-(methylsulfonyl)pyridin-2-yl)amino)-[2,3′-bipyridin]-6′-yl)acetamide]: the IC50 was above 10000 nM in the assay on pSTAT5/GM-CSF, 0.036 nM in assay [1] and 0.443 nM in assay [2]. Also, the “Selectivity fold (TYK2/JAK2)” value in assay [2] is above 22573 fold.

On to `CCOc1cc(Nc2cc(NC(C)=O)ncc2-c2ccc(C(C)(C)O)cn2)nc(S(C)(=O)=O)c1` [Example H33, N-(4′-((4-ethoxy-6-(methylsulfonyl)pyridin-2-yl)amino)-5-(2-hydroxypropan-2-yl)-[2,3′-bipyridin]-6′-yl)acetamide], for which the IC50 is above 10000 nM with pSTAT5/GM-CSF, 0.019 nM in assay [1] and 0.777 nM in assay [2]. The “Selectivity fold (TYK2/JAK2)” value in assay [2] is above 22371 fold.

In the case of `CC(=O)Nc1cc(Nc2cc(OCC(C)O)cc(S(C)(=O)=O)n2)c(-c2ccn(C)n2)cn1` (centres unmarked) [Example J24, N-(4-((4-(2-hydroxypropoxy)-6-(methylsulfonyl)pyridin-2-yl)amino)-5-(1-methyl-1H-pyrazol-3-yl)pyridin-2-yl)acetamide], the IC50 was above 10000 nM with pSTAT5/GM-CSF, 0.028 nM in assay [1] and 6.05 nM in assay [2]. For the same molecule, the “Selectivity fold (TYK2/JAK2)” value in the assay with pSTAT5/GM-CSF (setting [3]) was above 1652 fold.

For `CC(=O)Nc1cc(Nc2cccc(S(=O)(=O)C(C)C)n2)c(-c2ccn(C)n2)cn1` [Example J29, N-(4-((6-(isopropylsulfonyl)pyri-din-2-yl)amino)-5-(1-methyl-1H-pyrazol-3-yl)pyridin-2-yl)acetamide], the IC50 is above 10000 nM in the assay on pSTAT5/GM-CSF, 0.045 nM in assay [1] and 12.4 nM in assay [2]. Besides, in the assay with pSTAT5/GM-CSF (setting [3]), the “Selectivity fold (TYK2/JAK2)” value is above 805 fold.
